According to US6773897B2, “Method of predicting the clinical response to chemotherapeutic treatment with alkylating agents” (The Johns Hopkins University School of Medicine, priority 2000, dated 2004):
Read-outs that look alike come from different tables or passages of the source.

What was measured:
[1] = target: T1, MGMT (Homo sapiens, UniProt P16455); conditions: cited from earlier work
T1 sequence (P16455 1-207): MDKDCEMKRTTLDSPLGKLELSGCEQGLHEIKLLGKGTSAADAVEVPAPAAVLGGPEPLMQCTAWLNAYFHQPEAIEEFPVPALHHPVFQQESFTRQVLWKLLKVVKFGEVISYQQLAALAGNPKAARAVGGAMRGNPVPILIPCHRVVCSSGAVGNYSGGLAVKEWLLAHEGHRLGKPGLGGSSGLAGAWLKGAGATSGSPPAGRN

[2] = target: T1, MGMT; conditions: substrate for MGMT; cited from earlier work
[3] = test system: grade III or IV gliomas (anaplastic astrocytoma, glioblastoma multiforme); assay: Clinical response, survival and time to progression of gliomas treated with carmustine, by MGMT promoter methylation status; assay type: in vivo, human
Protocol: The annealing temperature was 59° C.
Contingency tables were analyzed by Fisher's exact test.
Specimens of brain tumors from 47 consecutive subjects referred to the University Hospital of Navarre, in Pamplona, Spain, between April 1993 and November 1998 were studied. All the subjects provided written informed consent. […] Subjects were 38 to 70 years old (median age at diagnosis, 55 years); 30 were men, and 17 were women. Tumor specimens were obtained by resection or biopsy performed before the initiation of treatment with radiation and chemotherapy and were immediately frozen and stored at −80° C. All subjects were treated with intraarterial cisplatin (50 mg per square meter of body-surface area), whole-brain radiotherapy, and a median of three courses of intravenous carmustine (1,3-bis(2-chloroethyl)-1-nitrosourea, or BCNU; 100 mg per square meter) given at four-week intervals. Fifteen of the subjects also underwent autologous bone marrow transplantation plus high-dose chemotherapy treatment with three doses of intravenous carmustine (300 mg per square meter) per day and one dose of intraarterial cisplatin (100 mg)
The response to treatment was evaluated after the subjects had completed therapy. A complete response was defined as the absence of any evidence of the tumor on computed tomographic (CT) and magnetic resonance imaging (MRI) scans, with no need for steroid treatment and an improvement in the subject's general condition. Subjects with persistent CT abnormalities but with more than a 50 percent reduction in both the diameter and the volume of the tumor, a reduced need for steroid treatment, and a stabilized neurologic condition were considered to have a partial response. The disease was considered to have progressed if both the diameter and volume of the tumor increased by 25 percent or more of the initial measurements, if a new lesion was evident on CT or MRI scans, or if the subject's neurologic condition worsened and required an increased dose of steroids.
Forty-seven newly diagnosed grade III or IV gliomas (classified as anaplastic astrocytoma in 18 subjects and as glioblastoma multiforme in 29) were analyzed. Methylation of the MGMT promoter was found in 19 of the 47 tumors (40 percent) a frequency similar to that found in a previous study (Estellar, 1999, supra) and consistent with that in other reports (Silber et al., Cancer Res 1993; 53:3416-3420; and Silber et al., Cancer Res 1998; 58:1068-1073). Methylation was not associated with the subject's age, the Karnofsky score for performance status, or the grade of the tumor (P>0.3 for each comparison).

[4] = test system: diffuse large B-cell lymphoma (B-DLCL)
Protocol: DNA was extracted according to standard protocols known to those of skill in the art (see, e.g., Sambrook et al., Molecular Cloning: a Laboratory Manual, 2nd Ed.; Cold Spring Harbor Laboratory Press, Plainview, N.Y., 1998, herein incorporated by reference). Methylation patterns in the CpG island of MGMT were determined by chemical modification of unmethylated, but not methylated, cytosines to uracil. Methylation-specific polymerase chain reaction (PCR) was performed with primers specific for either methylated or the modified unmethylated DNA, as previously described (Esteller, et al. Cancer Res 1999; 59:793-797; incorporated herein by reference in its entirety; and Herman et al. Proc Natl Acad Sci USA 1996;93:9821-9826; incorporated herein by reference in its entirety). DNA (1 μg) was denatured with sodium hydroxide and modified with sodium bisulfite. DNA samples were then purified with the Wizard DNA purification resin (Promega, Madison, Wis.), again treated with sodium hydroxide, precipitated with ethanol, and resuspended in water. Primer sequences for the unmethylated reaction were 5′[…]3′ (forward primer; SEQ ID NO:1) and 5′[…]3′ (reverse primer; SEQ ID NO:2), and for the methylated reaction they were 5′[…]3′ (forward primer; SEQ ID NO:3) and 5′[…]3′ (reverse primer; SEQ ID NO:4). The annealing temperature was 59° C. Placental DNA treated in vitro with Sss I methyltransferase (New England Biolabs, Beverly, Mass.) was used as a positive control for methylated alleles of MGMT, and DNA from normal lymphocytes was used as a negative control. Controls without DNA were used for each set of methylation-specific PCR assays. Ten microliters of each 50-μl methylation-specific PCR product was loaded directly onto nondenaturing 6 percent polyacrylamide gels, stained with ethidium bromide, and examined under ultraviolet illumination.
Continuous variables were compared with the use of Student's t-test. Contingency tables were analyzed by Fisher's exact test. Disease-free and overall survival curves were estimated by the Kaplan-Meier method and were compared with the use of the log-rank test. Multivariate survival analyses were performed with the Cox proportional-hazards model, and proportional-hazards assumptions were checked with the use of Schoenfeld residuals and graphic methods. Descriptive or stratified analyses always preceded parametric modeling in order to confirm that the assumptions underlying the models were met. The results are reported as two-sided P values with 95 percent confidence intervals. Analyses were performed with the use of JMP software (version 3.1, SAS Institute, Cary, N.C.) and Stata software (version 6.0, Stata, College Station, Tex.).
Clinical follow-up was obtained until Aug. 31, 1999 or until death. […] Diagnosis was based on histopathology, immunophenotypic analysis of cell surface markers, and immunogenotypic analysis of immunoglobulin gene rearrangement. The histopathologic definition of B-DLCL was according to the REAL classification (Harris N L, et al., Blood. 1994;84:1361-92). Subjects positive for human immunodeficiency virus were not included in the study. Staging included routine blood chemistry tests; blood cell counts and differential; EKG; chest x-ray; computed tomography of chest, abdomen and pelvis; and bilateral bone marrow biopsy in all subjects. Disease stage was assessed according to Ann Arbor criteria (Carbone P P, et al., Cancer Res. 1971;31:1860-1). The International Prognostic […] (IPI) was calculated as described (The International Non-Hodgkin's Lymphoma Prognostic Factors Project. A predictive model for aggressive non-Hodgkin's lymphoma. N Engl J Med. 1993;329:987-94), with subjects classified as Low, Low-Intermediate, High-Intermediate, and High risk.
Treatment varied, depending on stage of disease, date of diagnosis, institution and prognostic factors.

[5] = subjects with MGMT methylation (N=30)
[6] = subjects without methylation (N=54)

In the case of `Nc1nc(OCc2ccccc2)c2nc[nH]c2n1` [O^6-benzylguanine], the “effect on sensitivity to cyclophosphamide metabolites” value [1] is given as “increase sensitivity to cyclophosphamide metabolites”, the “effect on response to alkyl nitrosoureas” value ([1]; in vitro and in vivo) is given as “enhance the response to alkyl nitrosoureas in vitro and in vivo” and the “effect on MGMT enzyme” value [2] is given as “inactivates the enzyme”.

For `O=NN(CCCl)C(=O)NCCCl` [carmustine, 1,3-bis(2-chloroethyl)-1-nitrosourea], the “risk of death, hazard ratio” value ([3]; lack of methylation vs methylation, univariate, 95% CI 3.0 to 42.7) was 9.5, the “Complete response, % (95% CI)” value ([3]; methylated (N=19)) was 11 (1-33) % and the “No Change, % (95% CI)” value ([3]; methylated (N=19)) was 16 (3-38) %. For the same compound, the “Partial response, % (95% CI)” value ([3]; methylated (N=19)) was 52 (29-76) %, the “Progression, % (95% CI)” value ([3]; methylated (N=19)) was 21 (6-44) % and the “median time to the progression of disease” value ([3]; methylated gliomas) was 21 months. The “time to progression, hazard ratio associated with nonmethylation” value ([3]; nonmethylation vs methylation, 95% CI 4.4 to 30.8) was 10.8, the “partial or complete response to carmustine” value ([3]; subjects with methylated MGMT promoter tumors (N=19)) was 63% and the “partial or complete response to carmustine” value ([3]; subjects with unmethylated MGMT promoter tumors (N=28)) was 4%. For the same compound, the “Complete response, % (95% CI)” value ([3]; unmethylated (N=28)) was 0 (0-12) %, the “No Change, % (95% CI)” value ([3]; unmethylated (N=28)) was 14 (4-33) % and the “Partial response, % (95% CI)” value ([3]; unmethylated (N=28)) was 4 (0-18) %. The “Progression, % (95% CI)” value ([3]; unmethylated (N=28)) was 82 (63-94) % and the “median time to the progression of disease” value ([3]; unmethylated gliomas) was 8 months.

In the case of `O=P1(N(CCCl)CCCl)NCCCO1` (stereo not shown) [cyclophosphamide], the “CR (complete remission)” value [4, 5] is reported as 77%, the NR [4, 5] is reported as 10% and the “PR (partial remission)” value [4, 5] is reported as 13%. The NR [4, 6] was 22%, the “PCR (complete remission)” value [4, 6] was 63% and the “PR (partial remission)” value [4, 6] was 15%. For the same compound, the “time to death, hazard ratio for non-methylation” value ([4]; univariate, 95% CI 1.2 to 7.5, p=0.01) was 2.8 and the “disease progression, hazard ratio without vs with methylation” value ([4]; univariate, 95% CI 1.3 to 5.8, p=0.005) was 2.6.
